Test results as given in PubChem BioAssay (NCI).
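Results reflect a 48-hour exposure of cells in 96-well plates to compound at five concentrations. TGI denotes the concentration required for complete inhibition of growth.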

Key:
Experiment in all cases: NCI tumour cell line growth inhibition, 48 h
SF-539 CNS = tested on: SF-539 CNS
NCI-H460 lung = tested on: NCI-H460 lung
BT-549 breast = tested on: BT-549 breast
UO-31 renal = tested on: UO-31 renal
CAKI-1 renal = tested on: CAKI-1 renal
K-562 leukemia = tested on: K-562 leukemia
OVCAR-4 ovarian = tested on: OVCAR-4 ovarian
DU-145 prostate = tested on: DU-145 prostate
LOX IMVI melanoma = tested on: LOX IMVI melanoma
HT29 colon = tested on: HT29 colon
OVCAR-3 ovarian = tested on: OVCAR-3 ovarian
ACHN renal = tested on: ACHN renal
SF-295 CNS = tested on: SF-295 CNS
OVCAR-5 ovarian = tested on: OVCAR-5 ovarian
PC-3 prostate = tested on: PC-3 prostate
NCI-H522 lung = tested on: NCI-H522 lung
SK-MEL-28 melanoma = tested on: SK-MEL-28 melanoma
RPMI-8226 leukemia = tested on: RPMI-8226 leukemia
MCF7 breast = tested on: MCF7 breast
UACC-257 melanoma = tested on: UACC-257 melanoma
KM12 colon = tested on: KM12 colon
UACC-62 melanoma = tested on: UACC-62 melanoma
SK-OV-3 ovarian = tested on: SK-OV-3 ovarian
CCRF-CEM leukemia = tested on: CCRF-CEM leukemia
HOP-62 NSCLC = tested on: HOP-62 NSCLC
HS 578T breast = tested on: HS 578T breast
U251 CNS = tested on: U251 CNS
MDA-MB-231 breast = tested on: MDA-MB-231 breast
SK-MEL-2 melanoma = tested on: SK-MEL-2 melanoma
MOLT-4 leukemia = tested on: MOLT-4 leukemia
HCT-15 colon = tested on: HCT-15 colon
SN12C renal = tested on: SN12C renal
COLO 205 colon = tested on: COLO 205 colon
TK-10 renal = tested on: TK-10 renal
SW-620 colon = tested on: SW-620 colon
A498 renal = tested on: A498 renal
SR leukemia = tested on: SR leukemia
SF-268 CNS = tested on: SF-268 CNS
SK-MEL-5 melanoma = tested on: SK-MEL-5 melanoma
EKVX NSCLC = tested on: EKVX NSCLC
IGROV1 ovarian = tested on: IGROV1 ovarian
HOP-92 NSCLC = tested on: HOP-92 NSCLC
OVCAR-8 ovarian = tested on: OVCAR-8 ovarian
T-47D breast = tested on: T-47D breast
NCI-H23 lung = tested on: NCI-H23 lung
HCT-116 colon = tested on: HCT-116 colon
SNB-19 CNS = tested on: SNB-19 CNS
MDA-MB-435 = tested on: MDA-MB-435
A549 NSCLC = tested on: A549 NSCLC

Measured: TGI

c1ccc(C(NC2CCCCC2NCCNC2CCCCC2NC(c2ccccc2)(c2ccccc2)c2ccccc2)(c2ccccc2)c2ccccc2)cc1 (centres undefined)
54.1 µM: BT-549 breast
65.5 µM: A498 renal
71.2 µM: UO-31 renal
42.1 µM: MCF7 breast
33.7 µM: HOP-92 NSCLC
53.6 µM: HCT-116 colon
32.7 µM: MDA-MB-435
47.7 µM: LOX IMVI melanoma
39.5 µM: NCI-H522 lung
45.3 µM: HS 578T breast
33.9 µM: U251 CNS
> 100 µM: all other assays above
